According to patent US20260007636A1, “TREATING VASCULAR STENOSIS” (Mayo Foundation for Medical Education and Research, priority 2022, published 2026):
“Also recorded” adds a separate entry of the source.

Columns and labels:
Mcp-1 = Mcp-1 gene expression in PMA treated THP-1 cells (qRT-PCR); assay type: cell-based, human
Procedure: (§1) THP-1 (human leukemia monocyte cell line) cells were obtained from American Type Culture Collection (ATCC, Manassas, VA). THP-1 cells (200,000/well) were placed in six-well plates. After overnight incubation in serum free RPMI medium, cells were treated with 200 ng/ml of phorbol 12-myristate 13-acetate (PMA, Sigma-Aldrich, St. Louis, MO) to induce monocyte differentiation into macrophages. […] Cells were collected and RNA was isolated using miRNeasy kit (Qiagen).
(§2) PCR primers were purchased from Integrated DNA technologies (ITD, San Diego, USA). The miRNeasy Kit was used to isolate RNA (Qiagen, Germantown, MD, USA) according to the manufacturer's instructions. The iscript c-DNA synthesis kit (Bio-Rad, Hercules, CA, USA) was used to synthesize cDNA, and real-time qRT-PCR was done with the iTaq universal SYBR green super mix (Bio-Rad) using a C1000 thermal cycler with CFX96 real-time system (Bio-Rad). TBP-1 was used as a reference gene, and gene expression data was normalized to the respective control veins. The 2^−ΔΔct method was used to measure the fold change in gene expression.

THP-1 cells = assay: CCR2, FABP4, IL8 and PPARγ gene expression in PMA treated THP-1 cells (qRT-PCR); assay type: cell-based, human; conditions: 200 ng/ml PMA, 300 μM BN or BN NP, 24 hours
Procedure: as §1, §2

In the case of `CCCCCCCCCCCCCC(=O)O[C@@H]1[C@@H](C)[C@@]2(O)[C@@H](C=C(CO)C[C@]3(O)C(=O)C(C)=C[C@@H]23)[C@@H]2C(C)(C)[C@]12OC(C)=O` [PMA, phorbol 12-myristate 13-acetate], the “average Mcp-1 gene expression” value (Mcp-1; 200 ng/ml PMA with or without 300 μM BN or BN NP, 24 hours, fold change) was 9.77±1.58, the “average increase of Mcp-1 gene expression” value (Mcp-1; PMA compared to NP C alone) was 859.13% and the CCR2 gene expression (THP-1 cells) was “significantly increased; also recorded: induced”. The FABP4 gene expression (THP-1 cells) was “significantly increased; also recorded: induced”, the IL8 gene expression (THP-1 cells) was “significantly increased; also recorded: induced” and the PPARγ gene expression (THP-1 cells) was “significantly increased; also recorded: induced”.
